Molecular target: human Cav2.2 (Homo sapiens, UniProt Q00975)
Experiment: Assessment of calcium channel activity using FLIPR (Ca2+ influx in IMR32 cells)
Type: cell-based
Settings: IMR32 cells endogenously expressing human Cav2.2; 60 minute pre-incubation; 2 μM nifedipine; depolarized with 80 mM KCl, 5 mM CaCl2
Experimental: (i) In Vitro Methods—Assessment of Calcium Channel Activity Using FLIPR:
The IMR32 cells were maintained in MEM media containing 10% (v/v) FBS, 1% (v/v) antibiotic/antimitotic, 1% (v/v) sodium pyruvate and 1% (v/v) MEM NEAA. Following dissociation in 0.05% (v/v) trypsin/EDTA, cells were seeded into black 1×96-well plates (Corning Cellbind) at a density of 1-1.2×10^5 cells/well and incubated in the maintenance media above for 48 hours at 37° C. […] After dye loading and a subsequent 60 minute pre-incubation with compounds (full log dilutions from 10 μM to 0.1 nM) in the presence of 1.3 mM CaCl2 and 2 μM nifedipine to block endogenous L-type channels, the external Ca^2+ concentration was increased to 5 mM CaCl2 and the cells concomitantly depolarized with 80 mM KCl to assay channel activity. To determine the IC50 values, the percent inhibition of the compound at each concentration was determined relative to the activity in the absence of inhibitor, and data was fitted using non-linear regression sigmoidal dose response curve analysis with GraphPad Prism®.

human Cav2.2, sequence (Q00975 whole entry): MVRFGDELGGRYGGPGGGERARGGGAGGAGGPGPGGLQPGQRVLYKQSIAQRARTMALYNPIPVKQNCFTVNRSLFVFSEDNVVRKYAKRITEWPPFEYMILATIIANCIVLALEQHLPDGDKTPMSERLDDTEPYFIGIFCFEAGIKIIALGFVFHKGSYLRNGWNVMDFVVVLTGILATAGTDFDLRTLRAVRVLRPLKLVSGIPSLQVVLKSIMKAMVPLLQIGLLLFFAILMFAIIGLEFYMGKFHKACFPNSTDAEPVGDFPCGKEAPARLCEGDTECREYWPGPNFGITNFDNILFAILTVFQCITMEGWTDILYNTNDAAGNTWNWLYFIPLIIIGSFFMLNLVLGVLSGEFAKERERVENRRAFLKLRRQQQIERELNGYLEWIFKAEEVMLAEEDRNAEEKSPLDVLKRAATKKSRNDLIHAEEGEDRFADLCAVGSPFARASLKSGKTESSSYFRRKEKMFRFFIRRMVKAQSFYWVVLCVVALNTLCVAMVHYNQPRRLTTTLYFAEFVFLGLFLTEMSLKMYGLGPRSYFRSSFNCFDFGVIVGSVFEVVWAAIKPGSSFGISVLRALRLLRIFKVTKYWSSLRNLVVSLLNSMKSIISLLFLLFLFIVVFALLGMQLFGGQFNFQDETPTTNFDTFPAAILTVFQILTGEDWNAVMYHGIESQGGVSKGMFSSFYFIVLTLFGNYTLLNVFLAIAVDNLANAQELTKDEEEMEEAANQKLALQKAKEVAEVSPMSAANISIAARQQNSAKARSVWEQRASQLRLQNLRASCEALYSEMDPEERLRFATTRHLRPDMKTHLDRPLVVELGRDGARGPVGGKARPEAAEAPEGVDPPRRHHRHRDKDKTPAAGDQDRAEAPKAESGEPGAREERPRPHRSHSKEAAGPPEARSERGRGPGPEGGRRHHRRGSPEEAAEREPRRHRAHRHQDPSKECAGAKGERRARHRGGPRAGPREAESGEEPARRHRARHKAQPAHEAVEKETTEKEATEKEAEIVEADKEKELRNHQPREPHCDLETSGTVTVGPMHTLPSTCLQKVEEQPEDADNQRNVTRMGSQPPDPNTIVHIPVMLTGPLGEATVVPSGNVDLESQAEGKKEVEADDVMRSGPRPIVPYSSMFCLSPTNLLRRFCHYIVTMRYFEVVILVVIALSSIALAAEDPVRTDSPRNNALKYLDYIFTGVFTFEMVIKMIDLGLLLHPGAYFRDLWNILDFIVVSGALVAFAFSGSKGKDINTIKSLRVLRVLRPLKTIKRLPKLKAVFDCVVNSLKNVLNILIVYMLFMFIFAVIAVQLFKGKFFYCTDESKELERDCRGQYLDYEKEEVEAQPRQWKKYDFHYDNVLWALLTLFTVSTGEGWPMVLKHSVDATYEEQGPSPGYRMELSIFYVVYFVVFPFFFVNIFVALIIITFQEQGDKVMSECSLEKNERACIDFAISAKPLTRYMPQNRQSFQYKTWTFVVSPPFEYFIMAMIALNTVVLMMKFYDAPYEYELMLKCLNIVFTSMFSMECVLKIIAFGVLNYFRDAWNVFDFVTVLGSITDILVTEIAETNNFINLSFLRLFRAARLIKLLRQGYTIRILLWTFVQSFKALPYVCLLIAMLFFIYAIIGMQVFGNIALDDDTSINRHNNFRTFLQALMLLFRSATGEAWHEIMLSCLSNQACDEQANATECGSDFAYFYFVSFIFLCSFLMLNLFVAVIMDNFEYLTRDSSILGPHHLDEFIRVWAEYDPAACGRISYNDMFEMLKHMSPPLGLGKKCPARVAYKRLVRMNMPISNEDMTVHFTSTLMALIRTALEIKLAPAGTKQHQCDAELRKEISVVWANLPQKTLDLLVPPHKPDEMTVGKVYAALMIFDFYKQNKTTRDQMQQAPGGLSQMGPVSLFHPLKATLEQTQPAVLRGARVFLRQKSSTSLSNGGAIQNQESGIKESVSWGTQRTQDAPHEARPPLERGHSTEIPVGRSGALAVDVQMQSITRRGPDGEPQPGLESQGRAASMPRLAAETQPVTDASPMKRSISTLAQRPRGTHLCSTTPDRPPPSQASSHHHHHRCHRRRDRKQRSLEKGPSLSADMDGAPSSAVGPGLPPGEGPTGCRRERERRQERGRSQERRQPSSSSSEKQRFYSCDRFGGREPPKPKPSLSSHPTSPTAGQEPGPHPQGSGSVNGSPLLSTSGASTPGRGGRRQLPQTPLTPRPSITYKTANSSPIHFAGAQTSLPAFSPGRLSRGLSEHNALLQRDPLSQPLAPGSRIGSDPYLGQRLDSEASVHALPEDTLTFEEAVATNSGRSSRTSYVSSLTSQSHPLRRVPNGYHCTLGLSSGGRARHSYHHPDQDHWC
human Cav2.2, sequence (P54289 25-951 partner limits assumed): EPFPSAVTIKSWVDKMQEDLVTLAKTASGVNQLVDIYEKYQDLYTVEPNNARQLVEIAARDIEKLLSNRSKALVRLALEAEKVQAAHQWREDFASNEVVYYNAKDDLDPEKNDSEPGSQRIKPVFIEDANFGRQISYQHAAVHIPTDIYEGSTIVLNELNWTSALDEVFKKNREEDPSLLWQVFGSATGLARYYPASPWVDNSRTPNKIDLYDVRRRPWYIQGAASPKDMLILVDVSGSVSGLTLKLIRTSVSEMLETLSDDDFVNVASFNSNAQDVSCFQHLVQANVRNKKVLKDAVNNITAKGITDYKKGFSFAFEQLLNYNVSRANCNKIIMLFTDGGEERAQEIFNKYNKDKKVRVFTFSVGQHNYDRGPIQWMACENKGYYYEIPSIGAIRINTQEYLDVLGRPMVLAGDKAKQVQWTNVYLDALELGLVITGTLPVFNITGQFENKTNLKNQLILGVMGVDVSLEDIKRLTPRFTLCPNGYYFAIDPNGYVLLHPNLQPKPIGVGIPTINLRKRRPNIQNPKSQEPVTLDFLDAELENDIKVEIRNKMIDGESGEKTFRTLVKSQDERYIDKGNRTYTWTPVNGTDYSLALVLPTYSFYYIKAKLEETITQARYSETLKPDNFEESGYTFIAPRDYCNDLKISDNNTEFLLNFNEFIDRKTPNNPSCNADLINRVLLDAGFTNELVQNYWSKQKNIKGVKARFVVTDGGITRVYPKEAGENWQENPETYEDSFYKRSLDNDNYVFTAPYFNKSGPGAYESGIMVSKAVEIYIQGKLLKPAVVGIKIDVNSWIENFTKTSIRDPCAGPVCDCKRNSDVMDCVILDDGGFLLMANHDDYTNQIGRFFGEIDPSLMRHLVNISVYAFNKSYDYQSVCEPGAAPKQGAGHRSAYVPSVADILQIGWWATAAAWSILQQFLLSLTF
human Cav2.2, sequence (P54289 952-1103 partner limits assumed): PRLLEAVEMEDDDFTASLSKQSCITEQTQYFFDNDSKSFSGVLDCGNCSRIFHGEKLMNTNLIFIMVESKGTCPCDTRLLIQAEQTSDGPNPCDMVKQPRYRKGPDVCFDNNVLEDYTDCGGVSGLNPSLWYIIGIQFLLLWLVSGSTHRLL
human Cav2.2, sequence (P54284 whole entry partner): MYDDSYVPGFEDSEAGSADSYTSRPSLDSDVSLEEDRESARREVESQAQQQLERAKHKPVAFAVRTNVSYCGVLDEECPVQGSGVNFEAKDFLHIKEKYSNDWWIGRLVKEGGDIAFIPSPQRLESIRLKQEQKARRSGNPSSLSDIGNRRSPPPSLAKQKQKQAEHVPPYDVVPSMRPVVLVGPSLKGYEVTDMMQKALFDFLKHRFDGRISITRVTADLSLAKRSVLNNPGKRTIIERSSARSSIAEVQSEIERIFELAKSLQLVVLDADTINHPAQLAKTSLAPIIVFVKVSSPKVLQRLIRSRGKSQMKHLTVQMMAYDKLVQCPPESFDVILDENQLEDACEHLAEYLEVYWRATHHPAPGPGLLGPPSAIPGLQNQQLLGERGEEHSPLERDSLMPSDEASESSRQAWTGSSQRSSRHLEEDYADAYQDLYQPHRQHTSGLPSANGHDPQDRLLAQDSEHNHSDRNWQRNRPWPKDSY

| IC50 [µM] | Compound |
| --- | --- |
| 3.37 | O=C1N(Cc2nc(-c3ccc(C(F)(F)F)nc3)no2)CCCC1(c1ccccc1)c1ccccc1 [Example 177, 3,3-diphenyl-1-({3-[6-(trifluoromethyl)pyridin-3-yl]-1,2,4-oxadiazol-5-yl}methyl)piperidin-2-one] |
| 6.48 | O=C1N(CCN2CCN(c3ncccn3)CC2)CCCC1(c1ccccc1)c1ccccc1 [Example 134, 3,3-diphenyl-1-[2-(4-pyrimidin-2-ylpiperazin-1-yl)ethyl]piperidin-2-one] |
| 0.73 | COc1ccc(C2(c3ccc(OC)cc3)CCN(CCN(C)CC(O)COc3cccc4ncccc34)C2=O)cc1 (centres unmarked) [Example 106, 1-{2-[[2-hydroxy-3-(quinolin-5-yloxy)propyl](methyl)amino]ethyl}-3,3-bis(4-methoxyphenyl)pyrrolidin-2-one] |
| 1.23 | O=C(CN1CCCC(c2ccccc2)(c2ccccc2)C1=O)N1CCN(C(c2ccccc2)c2ccccc2)C(=O)C1 [Example 83, 1-benzhydryl-4-[(2-oxo-3,3-diphenylpiperidin-1-yl)acetyl]piperazin-2-one] |
| 3.39 | O=C1N(Cc2nc(CCc3ccc(Cl)cc3)no2)CCC1(c1ccc(F)cc1)c1ccc(F)cc1 [Example 165, 1-({3-[2-(4-chlorophenyl)ethyl]-1,2,4-oxadiazol-5-yl}methyl)-3,3-bis(4-fluorophenyl)pyrrolidin-2-one] |
| 6.18 | Cc1nc(-c2ccc(C(F)(F)F)cc2)sc1CN1CCC(c2ccccc2)(c2ccccc2)C1=O [Example 156, 1-({4-methyl-2-[4-(trifluoromethyl)phenyl]-1,3-thiazol-5-yl}methyl)-3,3-diphenylpyrrolidin-2-one] |
| 8.32 | N#Cc1ccc(NC(=O)CN2CCC(c3ccccc3)(c3ccccc3)C2=O)nc1 [Example 251, N-(5-cyanopyridin-2-yl)-2-(2-oxo-3,3-diphenylpyrrolidin-1-yl)acetamide] |
| 5.25 | O=C(CN1CCC(c2ccc(Cl)c(Cl)c2)C1=O)N1Cc2ccc(F)cc2C1 (centres unmarked) [Example 270, 3-(3,4-dichlorophenyl)-1-[2-(5-fluoro-1,3-dihydro-2H-isoindol-2-yl)-2-oxoethyl]pyrrolidin-2-one] |
| 3.77 | O=C(CN1CCC(c2ccccc2)(c2ccccc2)C1=O)Nc1ccc(C(F)(F)F)cn1 [Example 246, 2-(2-oxo-3,3-diphenylpyrrolidin-1-yl)-N-[5-(trifluoromethyl)pyridin-2-yl]acetamide] |
| 4.08 | O=C1N(Cc2nc(-c3ccc(F)cc3)no2)CCC1(c1ccccc1)c1ccccc1 [Example 194, 1-{[3-(4-fluorophenyl)-1,2,4-oxadiazol-5-yl]methyl}-3,3-diphenylpyrrolidin-2-one] |
| 6.48 | O=C(CN1CCC(c2ccccc2)(c2ccccc2)C1=O)Nc1ncc(C(F)(F)F)cc1Cl [Example 249, N-[3-chloro-5-(trifluoromethyl)pyridin-2-yl]-2-(2-oxo-3,3-diphenylpyrrolidin-1-yl)acetamide] |
| 2.02 | O=C(CN1CCCC(c2ccccc2)(c2ccccc2)C1=O)N1CCC(n2nnc3cc(C(F)(F)F)ccc32)CC1 [Example 164, 1-(2-oxo-2-{4-[5-(trifluoromethyl)-1H-1,2,3-benzotriazol-1-yl]piperidin-1-yl}ethyl)-3,3-diphenylpiperidin-2-one] |
| 5.74 | COc1ccc(OC2CCN(C(=O)CN3CCCC(c4ccccc4)(c4ccccc4)C3=O)CC2)cc1 [Example 161, 1-{2-[4-(4-methoxyphenoxy)piperidin-1-yl]-2-oxoethyl}-3,3-diphenylpiperidin-2-one] |
| 1.56 | O=C1N(CCN2CCN(c3cccc(C(F)(F)F)c3)CC2)CCCC1(c1ccccc1)c1ccccc1 [Example 141, 3,3-diphenyl-1-(2-{4-[3-(trifluoromethyl)phenyl]piperazin-1-yl}ethyl)piperidin-2-one] |
| 4.89 | O=C1N(Cc2nc(-c3ccc(O)cc3)no2)CCCC1(c1ccccc1)c1ccccc1 [Example 206, 1-{[3-(4-hydroxyphenyl)-1,2,4-oxadiazol-5-yl]methyl}-3,3-diphenylpiperidin-2-one] |
| 2.2 | O=C(CN1CCCC(c2ccccc2)C1=O)N1CCN(Cc2ccc(Cl)cc2Cl)CC1 (centres unmarked) [Example 94, 1-{2-[4-(2,4-dichlorobenzyl)piperazin-1-yl]-2-oxoethyl}-3-phenylpiperidin-2-one] |
| 0.4 | O=C(CN1CCC(c2ccccc2)(c2ccccc2)C1=O)NC1CCN(C(c2ccccc2)c2ccccc2)CC1 [Example 48, N-(1-benzhydrylpiperidin-4-yl)-2-(2-oxo-3,3-diphenylpyrrolidin-1-yl)acetamide] |
| 3.19 | COc1ccc(C2(c3ccc(OC)cc3)CCCN(CCN(C)C3Cc4ccccc4C3)C2=O)cc1 [Example 113, 1-{2-[2,3-dihydro-1H-inden-2-yl(methyl)amino]ethyl}-3,3-bis(4-methoxyphenyl)piperidin-2-one] |

| IC50 [µM] | Compound |
| --- | --- |
| 1.01 | O=C(CN1CCCC(c2ccccc2)C1=O)N1CCN(C(c2ccc(F)cc2)c2ccc(F)cc2)CC1 (centres unmarked) [Example 92, 1-(2-{4-[bis(4-fluorophenyl)methyl]piperazin-1-yl}-2-oxoethyl)-3-phenylpiperidin-2-one] |
| 5.67 | O=C1N(Cc2nc(-c3cccnc3)no2)CCC1(c1ccccc1)c1ccccc1 [Example 221, 3,3-diphenyl-1-[(3-pyridin-3-yl-1,2,4-oxadiazol-5-yl)methyl]pyrrolidin-2-one] |
| 13.4 | O=C(CN1CCC(c2ccccc2)(c2ccccc2)C1=O)NCc1nccs1 [Example 3, 2-(2-oxo-3,3-diphenylpyrrolidin-1-yl)-N-(1,3-thiazol-2-ylmethyl)acetamide] |
| 9.43 | O=C(CN1CCC(c2ccc(F)cc2)C1=O)N1Cc2ccc(C(F)(F)F)cc2C1 (centres unmarked) [Example 216, 3-(4-fluorophenyl)-1-{2-oxo-2-[5-(trifluoromethyl)-1,3-dihydro-2H-isoindol-2-yl]ethyl}pyrrolidin-2-one] |
| 1 | CN(CCN1CCC(c2ccc(F)cc2)(c2ccc(F)cc2)C1=O)CC(O)COc1cccc2ncccc12 (centres unmarked) [Example 108, 3,3-bis(4-fluorophenyl)-1-{2-[[2-hydroxy-3-(quinolin-5-yloxy)propyl](methyl)amino]ethyl}pyrrolidin-2-one] |
| 12.4 | O=C1C(c2ccc(F)cc2)CCN1Cc1nc(-c2ccc(C(F)(F)F)nc2)no1 (centres unmarked) [Example 238, 3-(4-fluorophenyl)-1-({3-[6-(trifluoromethyl)pyridin-3-yl]-1,2,4-oxadiazol-5-yl}methyl)pyrrolidin-2-one] |
| 2.97 | N#Cc1ccc(NC(=O)CN2CCC(c3ccc(F)cc3)(c3ccc(F)cc3)C2=O)nc1 [Example 252, 2-[3,3-bis(4-fluorophenyl)-2-oxopyrrolidin-1-yl]-N-(5-cyanopyridin-2-yl)acetamide] |
| 1.74 | O=C(CN1CCC(c2ccc(F)cc2)(c2ccc(F)cc2)C1=O)NC1CN(Cc2ccc(C(F)(F)F)c(F)c2)C1 [Example 239, 2-[3,3-bis(4-fluorophenyl)-2-oxopyrrolidin-1-yl]-N-{1-[3-fluoro-4-(trifluoromethyl)benzyl]azetidin-3-yl}acetamide] |
| 7.51 | O=C(CN1CCC(c2ccc(F)cc2)C1=O)N1CCc2ccc(Cl)cc2C1 (centres unmarked) [Example 256, 1-[2-(7-chloro-3,4-dihydroisoquinolin-2(1H)-yl)-2-oxoethyl]-3-(4-fluorophenyl)pyrrolidin-2-one] |
| 1.63 | COc1cccc(CCN(C)CCCN2CCCC(c3ccc(F)cc3)(c3ccc(F)cc3)C2=O)c1 [Example 121, 3,3-bis(4-fluorophenyl)-1-{3-[[2-(3-methoxyphenyl)ethyl](methyl)amino]propyl}piperidin-2-one] |
| 1.25 | O=C(CN1CCCC(c2ccc(F)cc2)(c2ccc(F)cc2)C1=O)N1CCN(Cc2cccc(C(F)(F)F)c2)CC1 [Example 175, 3,3-bis(4-fluorophenyl)-1-(2-oxo-2-{4-[3-(trifluoromethyl)benzyl]piperazin-1-yl}ethyl)piperidin-2-one] |
| 1.01 | O=C(CN1CCC(c2ccc(F)cc2)(c2ccc(F)cc2)C1=O)N1CCN(Cc2cccc(C(F)(F)F)c2)CC1 [Example 60, 3,3-bis(4-fluorophenyl)-1-(2-oxo-2-{4-[3-(trifluoromethyl)benzyl]piperazin-1-yl}ethyl)pyrrolidin-2-one] |
| 8.65 | O=C1N(Cc2nc(-c3ccc(C(F)(F)F)cc3)no2)CCCC1(c1ccccc1)c1ccccc1 [Example 99, 3,3-diphenyl-1-({3-[4-(trifluoromethyl)phenyl]-1,2,4-oxadiazol-5-yl}methyl)piperidin-2-one] |
| 1.64 | O=C(CN1CCCC(c2ccccc2)(c2ccccc2)C1=O)N1C[C@@H]2CCCN(C(c3ccccc3)c3ccccc3)[C@@H]2C1 [Example 88, 1-{2-[(4aS,7aS)-1-benzhydryloctahydro-6H-pyrrolo[3,4-b]pyridin-6-yl]-2-oxoethyl}-3,3-diphenylpiperidin-2-one] |
| 5.03 | O=C1N(Cc2nc(Cc3ccc(Cl)cc3)no2)CCCC1(c1ccccc1)c1ccccc1 [Example 207, 1-{[3-(4-chlorobenzyl)-1,2,4-oxadiazol-5-yl]methyl}-3,3-diphenylpiperidin-2-one] |
| 0.41 | O=C(CN1CCCC(c2ccccc2)(c2ccccc2)C1=O)N1CCN(S(=O)(=O)c2cccc(C(F)(F)F)c2)CC1 [Example 84, 1-[2-oxo-2-(4-{[3-(trifluoromethyl)phenyl]sulfonyl}piperazin-1-yl)ethyl]-3,3-diphenylpiperidin-2-one] |
| 10.6 | O=C(CN1CCC(c2ccc(F)cc2)C1=O)N1CCc2ccccc2C1 (centres unmarked) [Example 253, 1-[2-(3,4-dihydroisoquinolin-2(1H)-yl)-2-oxoethyl]-3-(4-fluorophenyl)pyrrolidin-2-one] |

— patent US8044069B2, “Compounds as calcium channel blockers” (Abbott Laboratories, priority 2008, dated 2011)
